Experimental findings from US20060280725A1, “Compositions and methods of treating and diagnosing hepatoma” (priority 2003, published 2006) are described below.

One may read the Km as the concentration of substrate that gives half-maximal velocity.

Like-named read-outs stand apart in the source and are kept apart here.

This assay deals with human fetal liver fibroblasts (HFLF). Kind of assay: Glutamine transport assay (inhibition and kinetic analysis). It counts as cell-based. The method, then: FIG. 5. Functional and molecular assessment of ATB^0 expression in human fetal liver fibroblasts (HFLF) and cirrhotic liver tissue. A) Amino acid inhibition analysis of Na^+-dependent glutamine uptake in human fetal liver fibroblasts. Fibroblasts were isolated and cultured as described in the Methods section, and amino acid inhibition analysis of 50 μM L-glutamine uptake was carried out as described in FIG. 1. *p<0.010 vs. control. The Eadie-Hofstee plot of the kinetic analysis is shown as an inset, with the dashed lines representing the resolved high and low affinity components of the composite data (solid line). The derived values of the kinetic constants for each component are given in the Results section. B) Northern blot analysis of ATB^0 expression in HFLF. Radiolabeled cDNA probes were generated with the Megaprime™ kit as described in the Methods section, and hybridized to 20 μg of total RNA from HFLF. Exposure time was 24 h. C) RT-PCR and restriction enzyme analysis of ATB^0 expression in HFLF, normal and cirrhotic liver. The analysis was carried out exactly as described in FIG. 3. Omission of RT is shown for the normal liver sample. D) Expression of ATB^0 in biopsies from a patient with liver cirrhosis and hepatocellular carcinoma (HCC). Northern blot analysis of ATB^0 & SN1 expression were performed on RNA extracted from the snap-frozen biopsies. RNA isolation and northern blot analysis was carried out as described in the Methods section, with full-length riboprobes used for detection of transporter mRNA. Exposure times for the blots are shown to illustrate relative expression levels for ATB^0 in each of the samples.
Glutamine Transport Assays. Measurement of initial-rate glutamine uptake was carried out via the cluster-tray method originally described by Gazzola (21) as reported previously (6, 9). Briefly, after trypsinization hepatoma cells were plated at a density of 1×10^5 cells/well in 24-well culture plates (Costar Corp., Cambridge, Mass.) and allowed to grow to >80% confluence, typically one to two days later. For initial-rate measurements, the radiotracer utilized was L-[G-^3H] glutamine (Amersham Corp., Arlington Heights, Ill.) at 4 μCi/ml, in the presence of unlabeled L-glutamine at 50 μM. For kinetic studies, the amount of unlabeled glutamine in the transport buffer varied from 10 μM to 10 mM. All transport measurements were carried out at 37° C. and were terminated after 30 s by three rapid washes with an ice-cold phosphate-buffered saline solution. Intracellular radiolabeled glutamine was extracted with 0.2 ml/well of 0.2% sodium dodecyl sulfate (SDS) and 0.2 N NaOH; after 1 h, 0.1 ml of the lysate was neutralized with 10 μl of 2 N HCl and subjected to scintillation spectrophotometry in a Packard TopCount™ (Packard Instruments, Meriden, Conn.). The remaining lysate was utilized for the determination of cellular protein by the bicinchoninic acid (BCA) method (Pierce Chemical Co., Rockford, Ill.). Rates of glutamine transport were calculated from the cpm per sample, the specific activity of the uptake mix (in cpm/nmol) and normalized to cellular protein content in a Microsoft Excel® spreadsheet program. Transport values obtained in the absence of extracellular Na^+ (diffusion and Na^+-independent uptake) were subtracted from those in the presence of Na^+ (total uptake) to yield Na^+-dependent rates which are reported in units of nmol•mg^−1 protein•30 s^−1. All transport values depicted are the average±standard deviation of four separate determinations. Kinetic analysis of Eadie-Hofstee linearized transport data (v vs. v/[L-GLN]) was performed by regression analysis (Cricket Graph®, Computer Associates, Islandia, N.Y.). Nonlinear regression analysis was performed with DataDesk (Data Description, Inc. Ithaca, N.Y.) and Excel for two component Michaelis-Menten kinetics: v=((Vmax1×[S])/(Km1+[S])+(Vmax2×[S])/(Km2+[S])). […]

Regarding `NC(=O)CC[C@H](N)C(=O)O` [glutamine, L-glutamine], the “Vmax, high affinity component” value was 5.3 nmol•mg^−1 protein•30 s^−1 and the “Vmax, low affinity component” value was 3.1 nmol•mg^−1 protein•30 s^−1. Also, the Km (read-out: Km, high affinity component) was found to be 163 µM. Moreover, where the note is “read-out: Km, low affinity component”, the Km worked out at 1200 µM.
